Reference: paper PMC9412362, “Design, Synthesis, and Characterization of Novel Coordination Compounds of Benzimidazole Derivatives with Cadmium” (Pharmaceutics, 2022)
Converted amounts (≈) assume the structure as drawn.

What was measured:
[1] = tested on: SK-N-AS cells; experiment: MTT cytotoxicity assay, neuroblastoma SK-N-AS; assay type: cell-based, human; conditions: MTT assay after 24 h of incubation, read-out: IC50 ± SD, SK-N-AS
Procedure: (§1) Samples of complexes (about 20 mg) were digested in a concentrated mixture of 36% HCl (1 mL) and 65% HNO3 (6 mL). The contents of Cd (II) in the solid complexes were determined with an F-AAS spectrometer (Analytik Jena, contraAA 300, Jena, Germany) with a continuous source of light and using an air/acetylene flame (Analytik Jena, contraAA 300). Absorbances were measured at the analytical spectral lines at 228.8 nm for Cd (II). The limit of quantification was 0.004 mg/L for Cd (II). The solid samples were decomposed using an Anton Paar Multiwave 3000 (Graz, Austria) closed-system instrument. Mineralization was carried out for 45 min at 240 °C under a pressure of 60 bar. The contents of carbon, hydrogen, and nitrogen were determined with an instrument from Vario Micro Company Elementar Analysensysteme GmbH (Langenselbold, Germany). FTIR spectra were recorded with an IR Tracer-100 Schimadzu Spectrometer (4000–600 cm^−1 with an accuracy of recording of 1 cm^−1, Kyoto, Japan) using KBr pellets. The thermal analyses were carried out with a Netzsch STA 449 F1 Jupiter thermoanalyzer (Netzsch-Geratebau GmbH, Selb, Germany) coupled with a Netzsch Aeolos Quadro QMS 403 mass spectrometer (Netzsch-Geratebau GmbH, Selb, Germany). The samples were heated up to 1000 °C in corundum crucibles with a heating rate of 10 °C/min in an atmosphere of synthetic air (20% O2, 80% N2). The cytotoxic effects of the compounds were evaluated using glioblastoma (T98G), neuroblastoma (SK-N-AS), and lung adenocarcinoma (A549) cell lines and normal human skin fibroblasts (CCD-1059Sk). T98G and SK-N-AS cells were cultured in high-glucose DMEM and A549 cells were cultured in DMEM/F12, while CCD-1059Sk cells were cultured in MEM. All media were supplemented with 10% (FBS), 100 U/mL of penicillin, and […] of streptomycin (PenStrep). Cells were incubated at 37 °C in a humidified atmosphere of 5% CO2. Stock solutions were prepared by dissolving the compounds in sterile dimethyl sulfoxide (DMSO) to obtain a concentration of 50 mg/mL. The cells were seeded into sterile 96-well plates (Nunc) at a density of 1 × 10^5 cells/mL. After 24 h of incubation, the medium was removed from each well, and then the cells were incubated for the next 24 h with different concentrations of the tested compounds (1–100 µg/mL) in their respective media containing 2% FBS. The cytotoxicity of the compounds was evaluated using an MTT assay, which was based on the conversion of 3-(4,5-dimethylthiazol-2-yl)-2,5-diphenyltetrazolium bromide (MTT) into dark-blue formazan crystals. Briefly, after 24 h of incubation of the cells with varying concentrations of the tested compounds, all culture media were removed from the plates. The cells were washed with PBS, and then 100 µL of medium containing 10% MTT solution (5 mg/mL) was added to each well. After 3 h of incubation, 100 µL (per well) of 10% SDS buffer solution was added to solubilize the formazan crystals. After overnight incubation, the absorbance was measured at 570 nm using a microplate reader (Epoch, BioTek Instruments). Experiments were repeated twice, and the measurements in each experiment were run in triplicate. The viability of the investigated cells was expressed as the percentage of the viability of the untreated cells, and the results were transformed into IC50 values (expressed as mean ± SD). The complexes were screened for antibacterial and antifungal activity by using the micro-dilution broth method with Mueller–Hinton broth for the growth of bacteria or Mueller–Hinton broth with 2% glucose for the growth of fungi. […]

[2] = tested on: E. coli ATCC 25922; experiment: MIC, micro-dilution broth method; assay type: cell-based, Escherichia coli; conditions: for MIC, E. coli ATCC 25922: Gram-negative bacteria
Procedure: as §1

[3] = tested on: C. parapsilosis ATCC 22019; experiment: MIC, micro-dilution broth method; assay type: cell-based, Candida parapsilosis; conditions: Yeasts; micro-dilution broth with 2% glucose
Procedure: as §1

[4] = tested on: CCD-1059Sk cells; experiment: MTT cytotoxicity assay, normal human skin fibroblasts CCD-1059Sk; assay type: cell-based; conditions: normal human fibroblasts CCD-1059Sk, MTT assay after 24 h of incubation; read-out: IC50 ± SD, CCD-1059-Sk
Procedure: as §1

[5] = tested on: B. subtilis ATCC 6633; experiment: MIC, micro-dilution broth method; assay type: cell-based, Bacillus subtilis; conditions: Gram-positive bacteria; micro-dilution broth
Procedure: as §1

[6] = tested on: S. epidermidis ATCC 12228; experiment: MIC, micro-dilution broth method; assay type: cell-based, Staphylococcus epidermidis; conditions: Gram-positive bacteria; micro-dilution broth
Procedure: as §1

[7] = tested on: P. aeruginosa ATCC 9027; experiment: MIC, micro-dilution broth method; assay type: cell-based, Pseudomonas aeruginosa; conditions: for MIC, P. aeruginosa ATCC 9027: Gram-negative bacteria
Procedure: as §1

[8] = tested on: A549 cells; experiment: MTT cytotoxicity assay, lung adenocarcinoma A549; assay type: cell-based, human; conditions: lung carcinoma A549, MTT assay after 24 h of incubation; read-out: IC50 ± SD, A549
Procedure: as §1

[9] = tested on: B. cereus ATCC 10876; experiment: MIC, micro-dilution broth method; assay type: cell-based, Bacillus cereus; conditions: Gram-positive bacteria; micro-dilution broth
Procedure: as §1

[10] = tested on: P. mirabilis ATCC 12453; experiment: MIC, micro-dilution broth method; assay type: cell-based, Proteus mirabilis; conditions: for MIC, P. mirabilis ATCC 12453: Gram-negative bacteria
Procedure: as §1

[11] = tested on: E. faecalis ATCC 29212; experiment: MIC, micro-dilution broth method; assay type: cell-based, Enterococcus faecalis; conditions: Gram-positive bacteria; micro-dilution broth
Procedure: as §1

[12] = tested on: C. albicans ATCC 102231; experiment: MIC, micro-dilution broth method; assay type: cell-based, Candida albicans; conditions: Yeasts; micro-dilution broth with 2% glucose
Procedure: as §1

[13] = tested on: S. typhimurium ATCC 14028; experiment: MIC, micro-dilution broth method; assay type: cell-based, Salmonella Typhimurium; conditions: Gram-negative bacteria
Procedure: as §1

[14] = tested on: M. luteus ATCC 10240; experiment: MIC, micro-dilution broth method; assay type: cell-based, Micrococcus luteus; conditions: Gram-positive bacteria; micro-dilution broth
Procedure: as §1

[15] = tested on: K. pneumoniae ATCC 13883; experiment: MIC, micro-dilution broth method; assay type: cell-based, Klebsiella pneumoniae; conditions: for MIC, K. pneumoniae ATCC 13883: Gram-negative bacteria
Procedure: as §1

[16] = tested on: T98G cells; experiment: MTT cytotoxicity assay, glioblastoma T98G; assay type: cell-based, human; conditions: MTT assay after 24 h of incubation, read-out: IC50 ± SD, T98G
Procedure: as §1

[17] = tested on: S. aureus ATCC 25923; experiment: MIC, micro-dilution broth method; assay type: cell-based, Staphylococcus aureus; conditions: Gram-positive bacteria; micro-dilution broth
Procedure: as §1

[18] = tested on: C. glabrata ATCC 2091; experiment: MIC, micro-dilution broth method; assay type: cell-based; conditions: Yeasts; micro-dilution broth with 2% glucose
Procedure: as §1

O.[Cl][Cd][Cl].c1cnc2[nH]c(-c3ccncc3)nc2c1 [C2, Cd(L2)Cl2∙H2O]
IC50 [1]: 22.5 µM | MIC, E. coli ATCC 25922 [2]: 1000 µg/mL | MIC, C. parapsilosis ATCC 22019 [3]: 7.8 µg/mL | IC50 [4]: 44.07 ± 0.33 µM | MIC, B. subtilis ATCC 6633 [5]: 0.98 µg/mL | MIC, S. epidermidis ATCC 12228 [6]: 500 µg/mL | MIC, P. aeruginosa ATCC 9027 [7]: >1000 µg/mL | IC50 [8]: 34.1 ± 0.55 µM | MIC, B. cereus ATCC 10876 [9]: 500 µg/mL | MIC, P. mirabilis ATCC 12453 [10]: >1000 µg/mL | MIC, E. faecalis ATCC 29212 [11]: 125 µg/mL | MIC, C. albicans ATCC 102231 [12]: 125 µg/mL | MIC, S. typhimurium ATCC 14028 [13]: >1000 µg/mL | MIC, M. luteus ATCC 10240 [14]: 7.8 µg/mL | MIC, K. pneumoniae ATCC 13883 [15]: >1000 µg/mL | IC50 [16]: 65.25 ± 0.63 µM | MIC, S. aureus ATCC 25923 [17]: 1000 µg/mL | MIC, C. glabrata ATCC 2091 [18]: 31.3 µg/mL

O.O.[Cl][Cd][Cl].c1cncc(-c2nc3cccnc3[nH]2)c1 [C3, Cd(L3)Cl2∙2H2O]
IC50 [1]: 34.5 ± 0.41 µM | MIC, E. coli ATCC 25922 [2]: 125 µg/mL | MIC, C. parapsilosis ATCC 22019 [3]: 15.6 µg/mL | IC50 [4]: 40.4 ± 0.41 µM | MIC, B. subtilis ATCC 6633 [5]: 7.8 µg/mL | MIC, S. epidermidis ATCC 12228 [6]: 1000 µg/mL | MIC, P. aeruginosa ATCC 9027 [7]: 125 µg/mL | IC50 [8]: 47.2 ± 2.1 µM | MIC, B. cereus ATCC 10876 [9]: >1000 µg/mL | MIC, P. mirabilis ATCC 12453 [10]: 31.3 µg/mL | MIC, E. faecalis ATCC 29212 [11]: >1000 µg/mL | MIC, C. albicans ATCC 102231 [12]: 125 µg/mL | MIC, S. typhimurium ATCC 14028 [13]: 125 µg/mL | MIC, M. luteus ATCC 10240 [14]: 7.8 µg/mL | MIC, K. pneumoniae ATCC 13883 [15]: 250 µg/mL | IC50 [16]: 55.7 ± 2.5 µM | MIC, S. aureus ATCC 25923 [17]: 1000 µg/mL | MIC, C. glabrata ATCC 2091 [18]: 31.3 µg/mL

Brc1cnc2[nH]c(-c3cccnc3)nc2c1.O.O.[Cl][Cd][Cl] [C4, Cd(L4)Cl2∙2H2O]
IC50 [1]: 25.3 ± 1 µM | MIC, E. coli ATCC 25922 [2]: 500 µg/mL | MIC, C. parapsilosis ATCC 22019 [3]: 7.8 µg/mL | IC50 [4]: 27.7 ± 0.9 µM | MIC, B. subtilis ATCC 6633 [5]: 7.8 µg/mL | MIC, S. epidermidis ATCC 12228 [6]: 250 µg/mL | MIC, P. aeruginosa ATCC 9027 [7]: >1000 µg/mL | IC50 [8]: 37.3 ± 2.1 µM | MIC, B. cereus ATCC 10876 [9]: 250 µg/mL | MIC, P. mirabilis ATCC 12453 [10]: 1000 µg/mL | MIC, E. faecalis ATCC 29212 [11]: 250 µg/mL | MIC, C. albicans ATCC 102231 [12]: 125 µg/mL | MIC, S. typhimurium ATCC 14028 [13]: 1000 µg/mL | MIC, M. luteus ATCC 10240 [14]: 7.8 µg/mL | MIC, K. pneumoniae ATCC 13883 [15]: 1000 µg/mL | IC50 [16]: 42.5 ± 0.96 µM | MIC, S. aureus ATCC 25923 [17]: 1000 µg/mL | MIC, C. glabrata ATCC 2091 [18]: 31.3 µg/mL

O=C(O)c1cn(C2CC2)c2cc(N3CCNCC3)c(F)cc2c1=O [Cip, ciprofloxacin, reference compound]
MIC ([2]; Escherichia coli, ATCC25922, Gram-negative bacteria): 0.015 µg/mL (≈ 0.0453 µM) | MIC ([7]; Pseudomonas aeruginosa, ATCC9027, Gram-negative bacteria): 0.49 µg/mL (≈ 1.48 µM) | MIC ([10]; Proteus mirabilis, ATCC12453, Gram-negative bacteria): 0.03 µg/mL (≈ 0.0905 µM) | MIC ([13]; Salmonella enterica): 0.061 µg/mL (≈ 0.184 µM) | MIC ([15]; Klebsiella pneumoniae, ATCC13883, Gram-negative bacteria): 0.12 µg/mL (≈ 0.362 µM)
